Assay results: article PMC3440086, “Profiling Environmental Chemicals for Activity in the Antioxidant Response Element Signaling Pathway Using a High Throughput Screening Approach” (Environmental Health Perspectives, 2012)
Entries after “also recorded” stand apart in the source; their conditions may differ. Read-outs that look alike come from different tables or passages of the source.

How the values were obtained:
[1] = test system: antioxidant response element (ARE) signaling pathway; test: ARE-bla β-lactamase reporter gene assay in HepG2 cells (qHTS); type: cell-based, human; conditions: for EC50: read-out: ARE-bla EC50; for Emax: read-out: ARE-bla Efficacy
[2] = test system: Nrf2-dependent ARE transcriptional activity; test: ARE-luc luciferase reporter gene assay in HepG2 cells (qHTS); type: cell-based; conditions: for EC50: read-out: ARE-luc EC50; for Emax: read-out: ARE-luc Efficacy
mutated ARE = type: cell-based; conditions: for ARE-bla mutant Efficacy: normalized to DMSO (0%) and ARE-bla maximal β-napthoflavone response (100%)
[3] = follow-up studies, up to 46 µM, listed as 1,10-phenanthroline monohydrate
[4] = primary qHTS screening, 0.59 nM to 92 µM
[5] = confirmation/follow-up studies, HepG2, 16 hr exposure, mean ± SD
[6] = confirmation/follow-up studies, HepG2, mean ± SD
[7] = Homo sapiens, HepG2, confirmation/follow-up studies, activation of ARE reporter as % of positive control (β-napthoflavone)
[8] = Homo sapiens, confirmation/follow-up studies, HepG2, 16 hr exposure, mean ± SD
[9] = Homo sapiens, HepG2, confirmation/follow-up studies, […]
[10] = confirmation/follow-up studies, […]
[11] = follow-up studies, up to 46 µM, listed as 3-dimethylaminophenol

Row | Compound | activity in ARE-bla assay (words) ([1]; follow-up studies, up to 46 µM) | ARE-luc EC50 [2, 5] | ARE-bla mutant IC50 (mutated ARE; [6]) | Emax [1, 7] [%] | EC50 [1, 8] [µM] | EC50 [2, 8] [µM] | other results
1 | 1,3-Dinitronapthalene |  |  |  |  |  |  | ARE-bla Efficacy [1]: 80%; EC50 [1]: 1.2 ± 0.2 µM; ARE-luc Efficacy [2]: 180%; EC50 [2]: 16.2 ± 11 µM; ARE-bla mutant IC50 (mutated ARE): inactive
2 | O.c1cnc2c(c1)ccc1cccnc12 [1,10-Phenanthroline monohydrate] | inactive in all assays | inactive | inactive |  |  |  | activity in ARE-bla assay (words) [1, 3]: inactive across all assays; activity in ARE-bla assay (words) [1, 4]: showed activity; activity in ARE-luc assay (words) ([2]; follow-up studies, up to 46 µM): inactive in all assays; activity in ARE-luc assay (words) [2, 3]: inactive across all assays; activity in ARE-bla-mut assay (words) (mutated ARE; follow-up studies, up to 46 µM): inactive in all assays; activity in ARE-bla-mut assay (words) (mutated ARE; [3]): inactive across all assays
3 | O=[N+]([O-])c1cc(Cl)c(Cl)c(Cl)c1Cl [2,3,4,5-Tetrachloronitrobenzene] |  |  | inactive | 56 | 9.4 ± 3.2 | 27.7 ± 6.7 | Emax [2, 7]: 124%
4 | Nc1cc(Cl)ccc1O [2-Amino-4-chlorophenol] |  |  | inactive |  | 7 ± 1.8 | 6.3 ± 2.1 | Emax [1, 9]: 72%; Emax [2, 7]: 175%
5 | Cc1cccc2sc(N)nc12 [2-Amino-4-methylbenzothiazole] | active only in the ARE-bla assay | inactive | inactive | 49 | 10.1 ± 2.1 |  | 
6 | Cc1ccc(O)c(N)c1 [2-Amino-4-methylphenol] |  |  | inactive | 76 | 12 ± 4.8 | 24 ± 7.1 | Emax [2, 7]: 90%
7 | Nc1nc2ccc([N+](=O)[O-])cc2s1 [2-Amino-6-nitrobenzothiazole] | active only in the ARE-bla assay | inactive | inactive | 107 | 16.7 ± 9.6 |  | 
8 | Nc1ccc(N)c(Cl)c1.O=S(=O)(O)O [2-Chloro-p-phenylenediamine SO4] |  |  | inactive |  |  |  | EC50 [1, 5]: 17.1 ± 4.1 µM; ARE-bla Efficacy [1, 10]: 72%; EC50 [2, 5]: 26.5 ± 6 µM; ARE-luc Efficacy [2, 10]: 83%
9 | Nc1cc(Cl)cc(Cl)c1 [3,5-Dichloroaniline] |  | inactive | inactive |  |  |  | ARE-bla EC50 [1, 5]: inactive
10 | CN(C)c1cccc(O)c1 [3-Dimethylaminophenol] | inactive in all assays |  | inactive |  |  |  | activity in ARE-bla assay (words) [1, 11]: inactive; activity in ARE-luc assay (words) ([2]; follow-up studies, up to 46 µM): inactive in all assays; activity in ARE-luc assay (words) [2, 11]: inactive; activity in ARE-bla-mut assay (words) (mutated ARE; follow-up studies, up to 46 µM): inactive in all assays
11 | Nc1ccc(Cl)cc1N [4-Chloro-o-phenylenediamine] | inactive |  | inactive |  |  | 27.2 ± 3.7 | activity in ARE-bla assay (words) [1, 4]: showed activity; Emax [2, 9]: 111%
12 | CCOCN(C(=O)CCl)c1c(C)cccc1CC [Acetochlor] | active; also recorded: demonstrated activity |  | inactive | 86 | 4.7 ± 1.6 | 21.9 ± 5.3 | activity in ARE-bla assay (words) [1, 4]: high-quality active; Emax [2, 7]: 78%; activity in ARE-luc assay (words) ([2]; follow-up studies, up to 46 µM): active; also recorded: demonstrated activity; activity in ARE-luc assay (words) [2, 4]: high-quality active
13 | c1ccc2c(c1)-c1cccc3c1c-2cc1ccccc13 [Benzo(b)fluoranthene] |  |  |  |  | 5.9 ± 3 | 1.3 ± 1 | Emax [1, 9]: 136%; Emax [2, 9]: 19%; activity in ARE-bla-mut assay (words) (mutated ARE): may exhibit autofluorescence; ARE-bla mutant Efficacy (mutated ARE; confirmation/follow-up studies): 134%
14 | c1ccc2cc3c(cc2c1)-c1cccc2cccc-3c12 [Benzo(k)fluoranthene] |  |  |  |  | 1.6 ± 0.7 | 4.9 ± 2.2 | Emax [1, 9]: 114%; Emax [2, 9]: 103%; activity in ARE-bla-mut assay (words) (mutated ARE): may exhibit autofluorescence; ARE-bla mutant Efficacy (mutated ARE; confirmation/follow-up studies): 160%
15 | CC(C)(c1ccc(O)cc1)c1ccc(O)cc1 [Bisphenol A] |  | inactive | inactive | 48 | 12.5 ± 5.6 |  | 
16 | [Cd+2].[Cl-].[Cl-] [Cadmium II chloride] |  |  |  |  |  |  | ARE-bla EC50 [1]: inactive; ARE-luc Efficacy [2]: 446; EC50 [2]: 1.1 ± 0.1 µM; ARE-bla mutant IC50 (mutated ARE): inactive
